Key:
[1] = molecular target: recombinant human FLAP protein (Homo sapiens (Human), UniProt P20292); assay: FLAP binding assay (Scintillation Proximity Assay, displacement of [125I]L-691,831); conditions: read-out: FLAP SPA IC50
Method in brief: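 Scintillation proximity displacement of an iodinated (125I) FLAP inhibitor by test compounds, using 100,000×g membrane fraction from lysed cells. Final beads 200 μg/well and protein 5 μg/well; plates shaken 2 h before reading.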

[2] = test system: synthesis of LTB4 in human whole blood; assay: Human whole blood LTB4 production inhibition assay; assay type: cell-based; conditions: calcimycin stimulated, read-out: hWB LTB4 IC50
Method in brief: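 Readout: plasma LTB4 by antibody-based HTRF. Compound added to heparinized human whole blood, 15 min 37° C; calcimycin 20 μM final (PBS pH 7.4), 30 min 37° C; spun 1500×g 5 min, plasma taken.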

Chain of recombinant human FLAP protein (P20292 whole entry): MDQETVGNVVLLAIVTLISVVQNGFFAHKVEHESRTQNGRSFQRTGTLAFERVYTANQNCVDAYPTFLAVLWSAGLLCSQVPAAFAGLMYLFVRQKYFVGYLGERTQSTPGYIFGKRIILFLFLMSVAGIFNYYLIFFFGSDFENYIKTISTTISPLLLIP

Row | SMILES | IC50 [1] [nM] | IC50 [2] [nM]
1 | Nc1ncc(-c2ccc(C3(c4noc(N5CCCC5)n4)CCC3)cn2)cn1 [Example 76, 5-(5-{1-[5-(pyrrolidin-1-yl)-1,2,4-oxadiazol-3-yl]cyclobutyl}pyridin-2-yl)pyrimidin-2-amine] | 92 | 920
2 | Cn1cccc(-c2nc(C3(c4ccc(-c5cnc(N)nc5)nc4)CCC3)no2)c1=O [Example 77, 3-(3-{1-[6-(2-aminopyrimidin-5-yl)pyridin-3-yl]cyclobutyl}-1,2,4-oxadiazol-5-yl)-1-methylpyridin-2(1H)-one] | 51 | 490
3 | Cc1n[nH]cc1-c1nc(C2(c3ccc(-c4cnc(N)nc4)nc3)CCC2)no1 [Example 78, 5-(5-{1-[5-(3-methyl-1H-pyrazol-4-yl)-1,2,4-oxadiazol-3-yl]cyclobutyl}pyridin-2-yl)pyrimidin-2-amine] | 4.7 | 220
4 | Cc1cc(-c2nc(C3(c4ccc(-c5cnc(N)nc5)nc4)CCC3)no2)[nH]n1 [Example 80, 5-(5-{1-[5-(3-methyl-1H-pyrazol-5-yl)-1,2,4-oxadiazol-3-yl]cyclobutyl}pyridin-2-yl)pyrimidin-2-amine] | 5.5 | 160
5 | COC(=O)c1ccc(-c2nc(C3(c4ccc(-c5cnc(N)nc5)nc4)CCC3)no2)cn1 [Example 81, methyl 5-(3-{1-[6-(2-aminopyrimidin-5-yl)pyridin-3-yl]cyclobutyl}-1,2,4-oxadiazol-5-yl)pyridine-2-carboxylate] | 25 | 790
6 | CC(C)(O)c1ccc(-c2nc(C3(c4ccc(-c5cnc(N)nc5)nc4)CCC3)no2)cn1 [Example 82, 2-[5-(3-{1-[6-(2-aminopyrimidin-5-yl)pyridin-3-yl]cyclobutyl}-1,2,4-oxadiazol-5-yl)pyridin-2-yl]propan-2-ol] | 17 | 480
7 | N#Cc1ccc(-c2nc(C3(c4ccc(-c5cnc(N)nc5)nc4)CCC3)no2)cn1 [Example 83, 5-(3-{1-[6-(2-aminopyrimidin-5-yl)pyridin-3-yl]cyclobutyl}-1,2,4-oxadiazol-5-yl)pyridine-2-carbonitrile] | 52 | 410
8 | Nc1ncc(-c2ccc(C3(c4noc(-c5cccnc5Cl)n4)CCC3)cn2)cn1 [Example 84, 5-(5-{1-[5-(2-chloropyridin-3-yl)-1,2,4-oxadiazol-3-yl]cyclobutyl}pyridin-2-yl)pyrimidin-2-amine] | 4.1 | 280
9 | Cc1ncccc1-c1nc(C2(c3ccc(-c4cnc(N)nc4)nc3)CCC2)no1 [Example 85, 5-(5-{1-[5-(2-methylpyridin-3-yl)-1,2,4-oxadiazol-3-yl]cyclobutyl}pyridin-2-yl)pyrimidin-2-amine] | 21 | 1000
10 | COc1ccncc1-c1nc(C2(c3ccc(-c4cnc(N)nc4)nc3)CCC2)no1 [Example 86, 5-(5-{1-[5-(4-methoxypyridin-3-yl)-1,2,4-oxadiazol-3-yl]cyclobutyl}pyridin-2-yl)pyrimidin-2-amine] | 18 | 1100
11 | Nc1ncc(-c2ccc(C3(c4noc(-c5ccncc5)n4)CCC3)cn2)cn1 [Example 87, 5-(5-{1-[5-(pyridin-4-yl)-1,2,4-oxadiazol-3-yl]cyclobutyl}pyridin-2-yl)pyrimidin-2-amine] | 55 | 1000
12 | Nc1ncc(-c2ccc(C3(c4noc(-c5cnccc5Cl)n4)CCC3)cn2)cn1 [Example 88, 5-(5-{1-[5-(4-chloropyridin-3-yl)-1,2,4-oxadiazol-3-yl]cyclobutyl}pyridin-2-yl)pyrimidin-2-amine] | 7.3 | 490
13 | Nc1ncc(-c2ccc(C3(c4noc(-c5ccc(N6CCOCC6)nc5)n4)CCC3)cn2)cn1 [Example 89, 5-[5-(1-{5-[6-(morpholin-4-yl)pyridin-3-yl]-1,2,4-oxadiazol-3-yl}cyclobutyl)pyridin-2-yl]pyrimidin-2-amine] | 2.7 | 180
14 | Nc1ncc(-c2ccc(C3(c4noc(-c5cn[nH]c5)n4)CCC3)cn2)cn1 [Example 90, 5-(5-{1-[5-(1H-pyrazol-4-yl)-1,2,4-oxadiazol-3-yl]cyclobutyl}pyridin-2-yl)pyrimidin-2-amine] | 7 | 140
15 | Nc1ncc(-c2ccc(C3(c4noc(-c5ccnc(O)c5)n4)CCC3)cn2)cn1 [Example 91, 4-(3-{1-[6-(2-aminopyrimidin-5-yl)pyridin-3-yl]cyclobutyl}-1,2,4-oxadiazol-5-yl)pyridin-2-ol] | 24 | 330
16 | Nc1ncc(-c2ccc(C3(c4noc(-c5ccncn5)n4)CCC3)cn2)cn1 [Example 92, 5-(5-{1-[5-(pyrimidin-4-yl)-1,2,4-oxadiazol-3-yl]cyclobutyl}pyridin-2-yl)pyrimidin-2-amine] | 130 | 2200
17 | COc1cc(-c2nc(C3(c4ccc(-c5cnc(N)nc5)nc4)CCC3)no2)ccn1 [Example 93, 5-(5-{1-[5-(2-methoxypyridin-4-yl)-1,2,4-oxadiazol-3-yl]cyclobutyl}pyridin-2-yl)pyrimidin-2-amine] | 9.6 | 400
18 | Cc1nc(C)c(-c2nc(C3(c4ccc(-c5cnc(N)nc5)nc4)CCC3)no2)s1 [Example 94, 5-(5-{1-[5-(2,4-dimethyl-1,3-thiazol-5-yl)-1,2,4-oxadiazol-3-yl]cyclobutyl}pyridin-2-yl)pyrimidin-2-amine] | 8.1 | 650
19 | Nc1ncc(-c2ccc(C3(c4noc(-c5ccc[nH]c5=O)n4)CCC3)cn2)cn1 [Example 95, 3-(3-{1-[6-(2-aminopyrimidin-5-yl)pyridin-3-yl]cyclobutyl}-1,2,4-oxadiazol-5-yl)pyridin-2(1H)-one] | 29 | > 5000
20 | COc1ccc(-c2nc(C3(c4ccc(-c5cnc(N)nc5)nc4)CCC3)no2)c(OC)n1 [Example 96, 5-(5-{1-[5-(2,6-dimethoxypyridin-3-yl)-1,2,4-oxadiazol-3-yl]cyclobutyl}pyridin-2-yl)pyrimidin-2-amine] | 7.3 | 1100
21 | Cc1ccc(-c2nc(C3(c4ccc(-c5cnc(N)nc5)nc4)CCC3)no2)c(O)n1 [Example 97, 3-(3-{1-[6-(2-aminopyrimidin-5-yl)pyridin-3-yl]cyclobutyl}-1,2,4-oxadiazol-5-yl)-6-methylpyridin-2-ol] | 19 | > 5000
22 | Nc1ncc(-c2ccc(C3(c4noc(-c5cnco5)n4)CCC3)cn2)cn1 [Example 98, 5-(5-{1-[5-(1,3-oxazol-5-yl)-1,2,4-oxadiazol-3-yl]cyclobutyl}pyridin-2-yl)pyrimidin-2-amine] | 110 | > 5000
23 | Nc1ncc(-c2ccc(C3(c4noc(-c5ccc(Cl)nc5)n4)CCC3)cn2)cn1 [Example 99, 5-(5-{1-[5-(6-chloropyridin-3-yl)-1,2,4-oxadiazol-3-yl]cyclobutyl}pyridin-2-yl)pyrimidin-2-amine] | 7.5 | 660
24 | Nc1ncc(-c2ccc(C3(c4noc(-c5cncnc5)n4)CCC3)cn2)cn1 [Example 100, 5-(5-{1-[5-(pyrimidin-5-yl)-1,2,4-oxadiazol-3-yl]cyclobutyl}pyridin-2-yl)pyrimidin-2-amine] | 120 | 960
25 | Cc1cc(-c2nc(C3(c4ccc(-c5cnc(N)nc5)nc4)CCC3)no2)ccn1 [Example 101, 5-(5-{1-[5-(2-methylpyridin-4-yl)-1,2,4-oxadiazol-3-yl]cyclobutyl}pyridin-2-yl)pyrimidin-2-amine] | 24 | 820
